How the values were obtained:
[1] = biological target: T1, human orexin 2 receptor (Homo sapiens, UniProt O43614); assay: Assay B: in vitro testing of OX2R potency, OX2R IP1; format: cell-based; settings: Table 4a; 0.5 nM Orexin A
T1 construct: CHO-K1 cells stably expressing the full-length human orexin 2 receptor and the aequorin photoprotein; expressed in transfected cells; host or cells: CHO-K1 (CHO-K1/hOx2)
T1 sequence (O43614 1-444): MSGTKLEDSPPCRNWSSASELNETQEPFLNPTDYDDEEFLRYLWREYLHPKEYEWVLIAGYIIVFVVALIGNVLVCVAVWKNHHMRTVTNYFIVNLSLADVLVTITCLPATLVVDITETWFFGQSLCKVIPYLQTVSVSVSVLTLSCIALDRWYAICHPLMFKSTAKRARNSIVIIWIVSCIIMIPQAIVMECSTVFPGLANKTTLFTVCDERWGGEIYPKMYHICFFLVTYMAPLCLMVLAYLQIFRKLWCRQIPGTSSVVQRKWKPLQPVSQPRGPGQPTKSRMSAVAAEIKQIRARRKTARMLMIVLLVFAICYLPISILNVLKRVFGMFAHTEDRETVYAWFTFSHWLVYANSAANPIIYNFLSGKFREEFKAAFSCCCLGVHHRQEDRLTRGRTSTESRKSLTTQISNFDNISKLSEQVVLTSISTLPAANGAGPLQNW
From the text: Activation of the orexin receptors expressed in cell lines results in an increase in intracellular IP3 concentration. IP1, a downstream metabolite of IP3, accumulates in cells following receptor activation and is stable in the presence of LiCl. Using Homogeneous Time-Resolved Fluorescence technology with Lumi4-Tb cryptate (commercially available from Cisbio Bioassay) and a suitable fluorescence plate reader. […] Chem. Genomics 2009, 3, 22-32. This technique is used to characterize pharmacological modification of the orexin receptors.
B. In Vitro Testing of OX2R Potency: OX2R IP1
IP1 measurements are performed in CHO-K1 cells stably expressing the full-length human orexin 2 receptor and the aequorin photoprotein. Cells are cultivated in Ham's nutrient mixture F12 medium with 10% fetal calf serum, in a 37° C., 95% humidity and 5% CO2 incubator. The CHO-K1/hOx2 cell mass is expanded to larger cell numbers. The cells are obtained as frozen cells in cryo-vials and stored until use at −150° C. The viability of the cells after thawing is >90%. In preparation for the assay, 24 hours before the assay, the cells are thawed at 37° C. and immediately diluted with cell culture medium. After centrifugation, the cell pellet is re-suspended in medium and then distributed into the assay plates with a density of 5000 cells/25 μL per well. The plates are incubated for one hour at room temperature to reduce edge effects before they are incubated for 24 hours at 37° C./5% CO2. Compounds are prepared by a 8-point serial dilution in DMSO and a final dilution step into assay buffer (HBSS with 20 mM HEPES, 0.1% BSA and 50 mM LiCl, pH 7.4) to ensure a final DMSO concentration of 1% in the assay. On the day of the assay, cells in the plate are washed twice with 60 μL assay buffer (20 μL buffer remained in the wells after washing), followed by adding 5 μL per well of compounds diluted in assay buffer. After 15 minutes of incubation at room temperature 5 μL per well of Orexin A peptide (final concentration: 0.5 nM) dissolved in assay buffer is added to the assay plate. The assay plate is incubated for 60 minutes at 37° C. Then 5 μL per well of Anti-IP1-Cryptate Tb solution and 5 μL per well of IP1-d2 dilution are added to all well of the plate and the plate is incubated for a further 60 minutes light protected at room temperature. The emission at 615 nm and 665 nm (Excitation wavelength: 320 nm) are measured using an EnVision reader (PerkinElmer). The ratio between the emission at 665 nm and 615 is calculated by the reader.
8-point four parametric non-linear curve fitting and determination of IC50 values and Hill slopes is performed using a regular analysis software e.g. AssayExplorer (Accelrys). In order to establish an agonist concentration independent parameter, Kb values are calculated using the following equation: IC50/((2+(A/EC50)^n)^1/n−1) (with A=concentration agonist, EC50=EC50 agonist, n=Hill slope agonist) (see P. Leff, I. G. Dougall, Trends Pharmacol. Sci. 1993, 14(4), 110-112).
Kb values from Assay A (OX1R) and Assay B (OX2R) can then provide a selectivity ratio which is independent of the agonist (Orexin A) concentration.

[2] = biological target: T2, human Orexin 1 receptor (Homo sapiens, UniProt O43613); assay: Assay A: in vitro testing of OX1R potency, OX1R IP1; format: cell-based; settings: for Kb: Table 4a, 50 nM Orexin A
T2 construct: CHO-K1 cells stably expressing the full-length human Orexin 1 receptor and the aequorin photoprotein; expressed in transfected cells; host or cells: CHO-K1 (CHO-K1/hOx1)
T2 sequence (O43613 1-425): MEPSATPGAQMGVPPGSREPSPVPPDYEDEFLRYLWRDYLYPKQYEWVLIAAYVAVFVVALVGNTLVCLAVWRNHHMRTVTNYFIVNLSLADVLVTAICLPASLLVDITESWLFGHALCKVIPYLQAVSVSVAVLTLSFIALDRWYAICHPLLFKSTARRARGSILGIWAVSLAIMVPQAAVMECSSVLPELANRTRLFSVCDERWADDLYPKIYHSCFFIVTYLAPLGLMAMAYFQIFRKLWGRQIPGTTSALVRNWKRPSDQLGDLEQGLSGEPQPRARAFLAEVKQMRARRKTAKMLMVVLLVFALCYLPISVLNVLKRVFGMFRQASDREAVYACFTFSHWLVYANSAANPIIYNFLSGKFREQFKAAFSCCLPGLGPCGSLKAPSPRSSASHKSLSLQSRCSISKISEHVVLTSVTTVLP

[3] = Assay D: assessment of log P; format: physicochemical
Method: The assay was performed following the description by S. F. Donovan and M. C. Pescatore in J. Chromatogr. A 952 (2002) 47-61.

[4] = biological target: T3, human MDR1 P-gp (Homo sapiens, UniProt P08183); assay: Assay C: efflux in MDCK cells transfected with the human MDR1 gene; format: in vitro ADME; settings: MDCK-MDR1 cell monolayers, pH 7.4, 37° C., read-out: MDCK efflux ratio (BA/AB)
T3 construct: expressed in transfected cells; host or cells: MDCK (MDCK-MDR1)
Method: C. Assessment of Efflux in Madin-Darby Canine Kidney (MDCK) Cells Transfected with the Human MDR1 Gene
Apparent permeability coefficients (PE) of the compounds across the MDCK-MDR1 cell monolayers are measured (pH 7.4, 37° C.) in apical-to-basal (AB) and basal-to-apical (BA) transport direction. AB permeability (PEAB) represents drug absorption from the blood into the brain and BA permeability (PEBA) drug efflux from the brain back into the blood via both passive permeability as well as active transport mechanisms mediated by efflux and uptake transporters that are expressed on the MDCK-MDR1 cells, predominantly by the overexpressed human MDR1 P-gp. The compounds are assigned to permeability/absorption classes by comparison of the AB permeabilities with the AB permeabilities of reference compounds with known in vitro permeability and oral absorption in the human. Identical or similar permeabilities in both transport directions indicate passive permeation, vectorial permeability points to additional active transport mechanisms. Higher PEBA than PEAB indicates the involvement of active efflux mediated by MDR1 P-gp. Active transport is concentration-dependently saturable.
MDCK-MDR1 cells (1-2×10e5 cells/1 cm2 area) are seeded on filter inserts (Costar transwell polycarbonate or PET filters, 0.4 μm pore size) and cultured (DMEM) for 7 days. Subsequently, the MDR1 expression is boosted by culturing the cells with 5 mM sodium butyrate in full medium for 2 days. Compounds are dissolved in appropriate solvent (like DMSO, 1-20 mM stock solutions). Stock solutions are diluted with HTP-4 buffer (128.13 mM NaCl, 5.36 mM KCl, 1 mM MgSO4, 1.8 mM CaCl2, 4.17 mM NaHCO3, 1.19 mM Na2HPO4×7H2O, 0.41 mM NaH2PO4—H2O, 15 mM HEPES, 20 mM glucose, 0.25% BSA, pH 7.4) to prepare the transport solutions (0.1-300 μM compound, final DMSO<=0.5%). The transport solution (TL) is applied to the apical or basolateral donor side for measuring A-B or B-A permeability (3 filter replicates), respectively. The receiver side contains the same buffer as the donor side. Samples are collected at the start and end of experiment from the donor and at various time intervals for up to 2 hours also from the receiver side for concentration measurement by H PLC-MS/MS or scintillation counting. Sampled receiver volumes are replaced with fresh receiver solution.

T3 sequence (P08183 whole entry): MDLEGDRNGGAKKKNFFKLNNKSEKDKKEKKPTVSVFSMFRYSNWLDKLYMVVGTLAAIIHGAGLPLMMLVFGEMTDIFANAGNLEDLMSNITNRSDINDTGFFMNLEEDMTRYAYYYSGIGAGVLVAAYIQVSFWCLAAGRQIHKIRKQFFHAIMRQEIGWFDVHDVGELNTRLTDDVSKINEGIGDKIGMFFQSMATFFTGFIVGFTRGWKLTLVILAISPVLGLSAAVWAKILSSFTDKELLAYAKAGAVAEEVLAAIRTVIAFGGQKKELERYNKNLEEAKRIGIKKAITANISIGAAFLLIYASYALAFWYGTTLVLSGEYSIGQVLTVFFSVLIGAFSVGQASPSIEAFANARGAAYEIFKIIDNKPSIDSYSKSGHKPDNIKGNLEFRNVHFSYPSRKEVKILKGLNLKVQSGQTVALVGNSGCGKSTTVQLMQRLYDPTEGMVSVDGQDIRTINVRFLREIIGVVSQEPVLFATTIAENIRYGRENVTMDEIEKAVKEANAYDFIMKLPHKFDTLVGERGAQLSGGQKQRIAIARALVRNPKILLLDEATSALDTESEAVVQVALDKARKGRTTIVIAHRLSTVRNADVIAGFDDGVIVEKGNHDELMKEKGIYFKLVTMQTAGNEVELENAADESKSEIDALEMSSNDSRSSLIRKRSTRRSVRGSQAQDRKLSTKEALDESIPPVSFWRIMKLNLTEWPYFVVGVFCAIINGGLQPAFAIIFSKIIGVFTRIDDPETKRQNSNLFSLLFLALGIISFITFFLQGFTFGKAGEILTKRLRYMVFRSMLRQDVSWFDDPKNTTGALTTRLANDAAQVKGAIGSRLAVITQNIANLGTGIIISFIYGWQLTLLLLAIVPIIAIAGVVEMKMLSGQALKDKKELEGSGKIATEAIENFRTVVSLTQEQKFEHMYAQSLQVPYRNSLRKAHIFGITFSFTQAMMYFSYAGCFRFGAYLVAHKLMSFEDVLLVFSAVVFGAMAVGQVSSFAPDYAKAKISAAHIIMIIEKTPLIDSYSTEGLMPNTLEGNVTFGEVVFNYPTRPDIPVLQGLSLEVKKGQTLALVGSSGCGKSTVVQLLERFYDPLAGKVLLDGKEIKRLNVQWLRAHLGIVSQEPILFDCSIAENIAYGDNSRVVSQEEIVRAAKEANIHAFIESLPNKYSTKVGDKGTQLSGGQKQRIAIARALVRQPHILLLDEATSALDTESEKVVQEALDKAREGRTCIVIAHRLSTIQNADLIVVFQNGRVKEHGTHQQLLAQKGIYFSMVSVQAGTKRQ

SMILES	Kb [1]	Kb [2]	chromatographic logP [3]	efflux ratio [4]	OX2R Kb/OX1R Kb [2]
CC[C@@H](CNc1ccc(Cl)cn1)N(C)C(=O)c1cc(C)ccc1-n1nccn1 [Ex 1 in WO2016/ 034882, reference compound]	43.2 nM				
CC[C@@H](CNc1ncc(C(F)(F)F)cn1)N(C)C(=O)c1cc(Cl)ccc1-n1nccn1 [Ex 39 in WO2016/ 034882, reference compound]	81.5 nM				
CC[C@@H](CNc1ccc(C(F)(F)F)cn1)N(C)C(=O)c1cc(Cl)ccc1-n1nccn1 [Ex 42 in WO2016/ 034882, reference compound]	36.2 nM				
CC[C@@H](CNc1ccc(C(F)(F)F)cn1)N(CC)C(=O)c1nc(C)ccc1-n1nccn1 [Ex 71 in WO2016/ 034882, reference compound]	27.3 nM	0.03 nM			
CC[C@@H](CNc1ncc(C(F)(F)F)cn1)N(CC)C(=O)c1nc(C)ccc1-n1nccn1 [Ex 73 in WO2016/ 034882, reference compound]	148 nM				
CC[C@@H](CNc1ncc(C(F)(F)F)cn1)N(C)C(=O)c1nc(C)ccc1-c1ncccn1 [Ex 84 in WO2016/ 034882, reference compound]		2.33 nM			
CC[C@@H](CNc1ncc(C(F)(F)F)cn1)N(C)C(=O)c1c(F)cccc1-n1nccn1 [Ex 91 in WO2016/ 034882, reference compound]		3.96 nM			
CCN(C(=O)c1c(-n2nccn2)ccc(C)c1F)[C@@H](C)CNc1ncc(C(F)(F)F)cn1 [Example 1]	21.8 nM	0.041 nM	2 to 4		
CCN(C(=O)c1cc(C)ccc1-n1nccn1)[C@@H](C)CNc1ncc(C(F)(F)F)cn1 [Example 2]	4.14 nM	0.011 nM	2 to 4	< 3	
CCN(C(=O)c1cc(C)ccc1-n1nccn1)[C@@H](C)CN(C)c1ncc(C(F)(F)F)cn1 [Example 3]	15.2 nM	0.02 nM	2 to 4	< 3	755
CCN(C(=O)c1cc(OC)ccc1-n1nccn1)[C@@H](C)CNc1ncc(C(F)(F)F)cn1 [Example 4]	14.4 nM	0.02 nM	2 to 4	< 3	
CCN(C(=O)c1ccc(C)cc1-n1nccn1)[C@@H](C)CNc1ncc(C(F)(F)F)cn1 [Example 5]	21.1 nM	0.012 nM	2 to 4		
CCN(C(=O)c1nc(C)sc1-c1ccccc1)[C@@H](C)CNc1ncc(C(F)(F)F)cn1 [Example 6]	7.03 nM	0.013 nM	2 to 4	< 3	
CCN(C(=O)c1ccc(Cl)cc1-n1nccn1)[C@@H](C)CNc1ncc(C(F)(F)F)cn1 [Example 7]	23.2 nM	0.025 nM	2 to 4	< 3	
CCN(C(=O)c1nc(C)sc1-c1ccc(F)cc1)[C@@H](C)CNc1ncc(C(F)(F)F)cn1 [Example 8]	7.92 nM	0.022 nM	2 to 4	< 3	
CCN(C(=O)c1cc(C)ccc1-n1nccn1)[C@@H](C)CN(C)c1ccc(Cl)cn1 [Example 9]	4.79 nM	0.0053 nM			909
CCN(C(=O)c1cc(C)ccc1-n1nccn1)[C@@H](C)CNc1ccc(Cl)cn1 [Example 10]	5.57 nM	0.014 nM			
CCN(C(=O)c1cccc(F)c1-c1ncccn1)[C@@H](C)CNc1ccc(C(F)(F)F)cn1 [Example 11]	3.15 nM	0.015 nM	2 to 4		
CCN(C(=O)c1cccc(F)c1-c1ncccn1)[C@@H](C)CNc1ccc(F)c(C(F)(F)F)n1 [Example 12]	4.15 nM	0.019 nM	2 to 4		
CCN(C(=O)c1cc(F)ccc1-c1ncccn1)[C@@H](C)CNc1ncc(C(F)(F)F)cc1F [Example 13]	5.16 nM	0.012 nM	2 to 4		
CCN(C(=O)c1ccc(C)c(C)c1-n1nccn1)[C@@H](C)CNc1ccc(Cl)cn1 [Example 14]	22.9 nM	0.023 nM		< 3	
CCN(C(=O)c1cccc(F)c1-n1nccn1)[C@@H](C)CNc1ccc(C(F)(F)F)cn1 [Example 15]	3.86 nM	0.0044 nM	2 to 4	< 3	
CCN(C(=O)c1cccc(F)c1-n1nccn1)[C@@H](C)CNc1ccc(Cl)cn1 [Example 17]	11.4 nM	0.043 nM			
CCN(C(=O)c1cccc(F)c1-n1nccn1)[C@@H](C)CNc1ccc(F)c(C(F)(F)F)n1 [Example 18]	16.3 nM	0.078 nM	2 to 4		

Source: patent US10710984B2, “N-[(Pyrimidinylamino)propanyl]-and N-[(Pyridinylamino)-propanyl]arylcarboxamides” (Boehringer Ingelheim International GmbH, priority 2016, dated 2020)
